Experimental data: patent publication US20180057505A1, “BICYCLIC HETEROARYL COMPOUNDS USEFUL AS INHIBITORS OF THE PAR-2 SIGNALING PATHWAY” (VERTEX PHARMACEUTICALS INCORPORATED, priority 2015, published 2018)

What was measured:
Type in all cases: cell-based
[1] = biological target: T1, PAR2 (HT-29 cells) (Homo sapiens, UniProt P55085); test: Ca FLIPR TETRA assay, ANTAGONIST mode, activator 3.1 U/mL trypsin; conditions: for IC50: HT-29 cells, activator 3.1 U/mL trypsin, maximal antagonist concentration per Method (A: 0.1, 1 or 2 μM; B: 50 μM); for Trypsin, % @ 50: @ 50 (μM)
T1 construct: host or cells: HT-29
T1 sequence (P55085 26-397): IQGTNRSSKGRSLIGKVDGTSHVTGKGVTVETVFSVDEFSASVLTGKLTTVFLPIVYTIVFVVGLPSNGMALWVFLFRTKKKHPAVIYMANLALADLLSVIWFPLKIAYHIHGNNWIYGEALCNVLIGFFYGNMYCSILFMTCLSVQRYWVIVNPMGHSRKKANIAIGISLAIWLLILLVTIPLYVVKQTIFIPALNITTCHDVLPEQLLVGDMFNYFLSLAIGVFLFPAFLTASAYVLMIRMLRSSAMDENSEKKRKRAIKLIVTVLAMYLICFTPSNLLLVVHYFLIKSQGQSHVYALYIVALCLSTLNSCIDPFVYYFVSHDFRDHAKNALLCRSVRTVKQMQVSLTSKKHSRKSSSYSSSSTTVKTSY
Experimental: (§1) Protocol for Testing PAR2 Compounds in ANTAGONIST Mode Using the Ca FLIPR^TETRA Assay (384 Well).
(§2) 23000 HT-29 cells (ATCC# HTB-38) were plated in 384-well black, transparent-flat bottom plates and incubated in 25 uL of 1% FBS/McCoy's media ON at 37° C. under an atmosphere of 5% CO2. The following day, 25 uL FLIPR calcium 5 Molecular Devices assay reagent (Cat: R-8186) was added. Plates were incubated at 37° C. and r. t. for 45 min and 15 min, respectively. Compounds dilutions were prepared in 100% DMSO using a Biomek FX and diluted 20-fold in HBSS and then 5.5 uL was added directly to the cells by the FLIPR^TETRA (10× dilution) using FLIPR Tetra Pipette tips, black, non-sterile, 384 Molecular Devices (Cat: 9000-0764).
(§3) A first read was performed to determine whether the test compounds on their own can activate Ca^2+ responses. The cells were incubated with the compounds for 30 min at r. t. and then read in ANTAGONIST mode in the same plate by stimulating with 6.2 uL of a fixed concentration of the activator: final concentrations 8 μM SLIGKV, 1 U/mL Thrombin, 3.1 U/mL trypsin, or 0.6 μM UTP.

[2] = system: Thrombin-stimulated Ca2+ response in HT-29 cells; test: Ca FLIPR TETRA assay, ANTAGONIST mode, activator 1 U/mL Thrombin; conditions: for IC50: HT-29 cells, activator 1 U/mL Thrombin
Experimental: as §1, §2, §3

[3] = system: UTP-stimulated Ca2+ response in HT-29 cells; test: Ca FLIPR TETRA assay, ANTAGONIST mode, activator 0.6 μM UTP; conditions: HT-29 cells, activator 0.6 μM UTP
Experimental: as §1, §2, §3

[4] = biological target: T1, PAR2 (HT-29 cells); test: Ca FLIPR TETRA assay, ANTAGONIST mode, activator 8 μM SLIGKV; conditions: for IC50: HT-29 cells, activator 8 μM SLIGKV, maximal antagonist concentration per Method (A: 0.1, 1 or 2 μM; B: 50 μM); for SLIGKV, % @ 50: @ 50 (μM)
Experimental: as §1, §2, §3

| IC50 [1] [nM] | IC50 ([2]; Homo sapiens) [nM] | IC50 ([3]; Homo sapiens) [nM] | IC50 [4] [nM] | IC50 [2] [nM] | IC50 [3] [nM] | SLIGKV, % @ 50 [4] [% @ 50] | Trypsin, % @ 50 [1] [% @ 50] | Structure (SMILES) | Thrombin, % @ 50 ([2]; @ 50 (μM)) [% @ 50] |
| --- | --- | --- | --- | --- | --- | --- | --- | --- | --- |
| 3.2 | > 40000 | 36000 | 2.9 | – | – | – | – | CCC(C)C(=O)N1CCN(C(=O)c2cc3nc(-c4ccc(F)cc4)cc(C4(C)CC4)c3o2)C(C)(C)C1 (centres unmarked) [Example I-44] | – |
| 4.1 | 20000 | 4700 | 4 | – | – | – | – | CC1(C(=O)N2CCN(C(=O)c3cc4nc(-c5ccc(F)cc5)cc(C5(C)CC5)c4o3)C(C)(C)C2)CC1 [Example I-45] | – |
| 7 | 4100 | 5300 | 7.9 | – | – | – | – | CC(C)C(=O)N1CCN(C(=O)c2cc3nc(-c4ccc(F)cc4)cc(C4(C)CC4)c3o2)C(C)(C)C1 [Example I-46] | – |
| 78 | > 50000 | > 50000 | 29 | – | – | – | – | CC[C@H](C(=O)N1CCN(C(=O)c2cc3nc(-c4ccc(F)cc4)cc(C4(C)CC4)c3o2)C(C)(C)C1)c1ccccc1 [Example I-47] | – |
| 5.9 | 16000 | 16000 | 5.1 | – | – | – | – | CC1(c2cc(-c3ccc(F)cc3)nc3cc(C(=O)N4CCN(C(=O)C5CCC5)CC4(C)C)oc23)CC1 [Example I-48] | – |
| 12 | 15000 | 18000 | 5.9 | – | – | – | – | CC1(c2cc(-c3ccc(F)cc3)nc3cc(C(=O)N4CCN(C(=O)C5CC5)CC4(C)C)oc23)CC1 [Example I-49] | – |
| 5.1 | > 50000 | > 50000 | 4.9 | – | – | – | – | CC1(c2cc(-c3ccc(F)cc3)nc3cc(C(=O)N4CCN(C(=O)C5C(C)(C)C5(C)C)CC4(C)C)oc23)CC1 [Example I-50] | – |
| 5.3 | 24000 | > 50000 | 5.8 | – | – | – | – | CC1(c2cc(-c3ccc(F)cc3)nc3cc(C(=O)N4CCN(C(=O)C5(C#N)CC5)CC4(C)C)oc23)CC1 [Example I-51] | – |
| 6 | > 50000 | > 50000 | 4.2 | – | – | – | – | CCC(C)(C)C(=O)N1CCN(C(=O)c2cc3nc(-c4ccc(F)cc4)cc(C4(C)CC4)c3o2)C(C)(C)C1 [Example I-52] | – |
| 74 | > 50000 | > 50000 | 53 | – | – | – | – | CC1(c2cc(-c3ccc(F)cc3)nc3cc(C(=O)N4CCN(C(=O)C5(c6ccc(Cl)cc6)CC5)CC4(C)C)oc23)CC1 [Example I-53] | – |
| 6.3 | 9600 | 7900 | 4.5 | – | – | – | – | CC1(c2cc(-c3ccc(F)cc3)nc3cc(C(=O)N4CCN(C(=O)C5CCOCC5)CC4(C)C)oc23)CC1 [Example I-54] | – |
| 4.6 | 29000 | > 33000 | 2.8 | – | – | – | – | CC1(c2cc(-c3ccc(F)cc3)nc3cc(C(=O)N4CCN(C(=O)C5(C(F)(F)F)CC5)CC4(C)C)oc23)CC1 [Example I-55] | – |
| 31 | 9000 | 5200 | 16 | – | – | – | – | CC1(c2cc(-c3ccc(F)cc3)nc3cc(C(=O)N4CCN(C(=O)C5(O)CCC5)CC4(C)C)oc23)CC1 [Example I-56] | – |
| 77 | 6800 | 8600 | 53 | – | – | – | – | CC1(c2cc(-c3ccc(F)cc3)nc3cc(C(=O)N4CCN(C(=O)C5(O)CCOCC5)CC4(C)C)oc23)CC1 [Example I-57] | – |
| 0.64 | 19000 | 30000 | 0.31 | – | – | – | – | CC1(c2cc(-c3ccc(F)cc3)nc3cc(C(=O)N4CCN(C(=O)C5CC(O)(C(F)(F)F)C5)CC4(C)C)oc23)CC1 (centres unmarked) [Example I-58] | – |
| 49 | 15000 | 15000 | 21 | – | – | – | – | CC[C@H](O)C(=O)N1CCN(C(=O)c2cc3nc(-c4ccc(F)cc4)cc(C4(C)CC4)c3o2)C(C)(C)C1 [Example I-59] | – |
| 67 | – | – | 48 | 14000 | 13000 | – | – | CC1(c2cc(-c3ccc(F)cc3)nc3cc(C(=O)N4CCN(C(=O)C5CCOC5)CC4(C)C)oc23)CC1 (centres unmarked) [Example I-60] | – |
| 11 | 17000 | 13000 | 4.8 | – | – | – | – | CC[C@@H](O)C(=O)N1CCN(C(=O)c2cc3nc(-c4ccc(F)cc4)cc(C(C)C)c3o2)C(C)(C)C1 [Example I-61] | – |

| IC50 [1] [nM] | IC50 ([2]; Homo sapiens) [nM] | IC50 ([3]; Homo sapiens) [nM] | IC50 [4] [nM] | IC50 [2] [nM] | IC50 [3] [nM] | SLIGKV, % @ 50 [4] [% @ 50] | Trypsin, % @ 50 [1] [% @ 50] | Structure (SMILES) | Thrombin, % @ 50 ([2]; @ 50 (μM)) [% @ 50] |
| --- | --- | --- | --- | --- | --- | --- | --- | --- | --- |
| 39 | 4700 | 5200 | 40 | – | – | – | – | CC(C)c1cc(-c2ccc(F)cc2)nc2cc(C(=O)N3CCN(C(=O)CC(C)(C)O)CC3(C)C)oc12 [Example I-62] | – |
| 110 | 18000 | 19000 | 62 | – | – | – | – | CO[C@H](C)C(=O)N1CCN(C(=O)c2cc3nc(-c4ccc(F)cc4)cc(C(C)C)c3o2)C(C)(C)C1 [Example I-63] | – |
| 6 | 30000 | 21000 | 4.5 | – | – | – | – | CC(C)c1cc(-c2ccc(F)cc2)nc2cc(C(=O)N3CCN(C(=O)C4CCCCO4)CC3(C)C)oc12 (centres unmarked) [Example I-64] | – |
| 16 | 2700 | 2800 | 10 | – | – | – | – | CC(C)c1cc(-c2ccc(F)cc2)nc2cc(C(=O)N3CCN(C(=O)c4ccn[nH]4)CC3(C)C)oc12 [Example I-65] | – |
| 15 | > 50000 | > 50000 | 13 | – | – | – | – | CO[C@@H](C(=O)N1CCN(C(=O)c2cc3nc(-c4ccc(F)cc4)cc(C(C)C)c3o2)C(C)(C)C1)c1ccccc1 [Example I-66] | – |
| 7.4 | > 50000 | > 50000 | 5.2 | – | – | – | – | CC(Oc1ccccc1)C(=O)N1CCN(C(=O)c2cc3nc(-c4ccc(F)cc4)cc(C(C)C)c3o2)C(C)(C)C1 (centres unmarked) [Example I-67] | – |
| 26 | 29000 | 21000 | 10 | – | – | – | – | CC(C)c1cc(-c2ccc(F)cc2)nc2cc(C(=O)N3CCN(C(=O)C(C)(O)C(F)(F)F)CC3(C)C)oc12 (centres unmarked) [Example I-68] | – |
| 52 | 37000 | > 32000 | 32 | – | – | – | – | CCC(O)(CC)C(=O)N1CCN(C(=O)c2cc3nc(-c4ccc(F)cc4)cc(C(C)C)c3o2)C(C)(C)C1 [Example I-69] | – |
| 23 | 15000 | 16000 | 17 | – | – | – | – | CC(C)c1cc(-c2ccc(F)cc2)nc2cc(C(=O)N3CCN(C(=O)C4(O)CC4)CC3(C)C)oc12 [Example I-70] | – |
| 4.7 | 35000 | 36000 | 2.6 | – | – | – | – | CC(C)c1cc(-c2ccc(F)cc2)nc2cc(C(=O)N3CCN(C(=O)C4CCCC4)CC3(C)C)oc12 [Example I-71] | – |
| 3.1 | 14000 | 13000 | 2.3 | – | – | – | – | CC(C)c1cc(-c2ccc(F)cc2)nc2cc(C(=O)N3CCN(C(=O)C4CC4(F)F)CC3(C)C)oc12 (centres unmarked) [Example I-72] | – |
| 4.2 | 8500 | 17000 | 2.4 | – | – | – | – | CC(C)c1cc(-c2ccc(F)cc2)nc2cc(C(=O)N3CCN(C(=O)c4ccon4)CC3(C)C)oc12 [Example I-73] | – |
| 7.7 | 11000 | 13000 | 5.3 | – | – | – | – | CC(C)c1cc(-c2ccc(F)cc2)nc2cc(C(=O)N3CCN(C(=O)[C@H](O)C(C)C)CC3(C)C)oc12 [Example I-74] | – |
| 140 | 31000 | 23000 | 24 | – | – | – | – | CC(C)c1cc(-c2ccc(F)cc2)nc2cc(C(=O)N3CCN(C(=O)[C@H]4CCCO4)CC3(C)C)oc12 [Example I-75] | – |
| 23000 | > 50000 | > 50000 | – | – | – | 64 | – | CC(C)c1cc(-c2ccc(F)cc2)nc2cc(C(=O)N3CCN(C(=O)OC(C)(C)C)CC3)oc12 [Example I-77] | – |
| – | – | – | – | > 50000 | > 50000 | 70 | 65 | CC(C)c1cc(-c2ccc(F)cc2)nc2cc(C(=O)N3CCN(C(=O)OC(C)(C)C)C[C@H]3C)oc12 [Example I-78] | – |
| – | – | > 50000 | 1700 | – | – | – | 60 | CC(C)c1cc(-c2ccc(F)cc2)nc2cc(C(=O)N3CCN(C(=O)OC(C)(C)C)C[C@@H]3C)oc12 [Example I-79] | 26 |
